This is an account of results in a compilation of properties of binary mixtures (doi:10.1016/j.molliq.2020.113163).

Structures are written as SMILES.

This series can be described thus: xn = mol fraction of the nth substance listed. Conditions: 101 kPa, x1 = 0.8.

As a reminder, the viscosity is the resistance of a fluid to flow. A low value points to easy flow. `C1CCC2=NCCCN2CC1` + O=S(=O)([N-]S(=O)(=O)C(F)(F)F)C(F)(F)F.[Li+]: the electrical conductivity came out at 0.0047 S/m (338.15 K), 0.0256 S/m (358.15 K) and 0.0438 S/m (368.15 K). For the same compound, the viscosity is, setting by setting: (338.15 K) 977 mPa·s; (358.15 K) 160.9 mPa·s; (368.15 K) 82.4 mPa·s.
In the case of `C1CN=C2CCCN2C1` + O=S(=O)([N-]S(=O)(=O)C(F)(F)F)C(F)(F)F.[Li+], the electrical conductivity turned out to be 0.0252 S/m (328.15 K), 0.0633 S/m (348.15 K) and 0.0966 S/m (358.15 K). Besides, the viscosity is, setting by setting: (328.15 K) 566 mPa·s; (348.15 K) 116.3 mPa·s; (358.15 K) 63.5 mPa·s.
